Test results from article PMC2527810, “[^18F]FDG and [^18F]FLT uptake in human breast cancer cells in relation to the effects of chemotherapy: an in vitro study” (British Journal of Cancer, 2008).
Each block holds one molecule with its values, some of them ahead of it.

Experiments:
purified TK-2 = molecular target: T1, purified TK-2 (Homo sapiens, UniProt O00142); test: FLT phosphorylation by purified TK-2; format: biochemical
T1 construct: gift: A. Karlsson, Karolinska Institute, Stockholm, Sweden
T1 sequence (O00142 34-265): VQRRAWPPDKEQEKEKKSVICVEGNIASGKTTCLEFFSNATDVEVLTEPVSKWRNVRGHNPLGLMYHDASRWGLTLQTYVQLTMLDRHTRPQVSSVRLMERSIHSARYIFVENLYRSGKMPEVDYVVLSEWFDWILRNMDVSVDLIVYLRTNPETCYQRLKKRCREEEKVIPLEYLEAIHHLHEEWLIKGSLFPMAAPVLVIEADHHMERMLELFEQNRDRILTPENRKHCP
Protocol: (§1) 3′-deoxy-3′-[^18F]fluorothymidine was diluted with 50 mM Tris/1 mM EDTA (pH 7.4) and 1 : 1 mixed with 20 mM ATP, 10 mM MgCl2, resulting in an FLT concentration of about 60 MBq ml^−1 (6.32–18.89 pmol per sample). […] was inhibited by addition of dCTP or the specific TK-2 inhibitor KIN52 (final concentration 2 μM) ([Balzarini et al, 2003]).
(§2) The assay was optimised for protein concentration and incubation times. Diluted cell lysates or purified TK-2 (kindly provided by A. Karlsson, Karolinska Institute, Stockholm, Sweden) were incubated with the FLT mixture for 15 min at 37°C and the reaction was stopped by heating the samples at 95°C for 5 min. Substrate (FLT) and product (FLT-phosphate) were separated by TLC and radioactivity was measured in a single-well gamma counter (Wallac1480 Wizard, Perkin Elmer Lifescience, MA, USA). Protein concentrations were measured in a Bio-Rad Bradford protein assay (Bio-Rad Laboratories, Hercules, CA, USA). Thymidine kinase activity was calculated as the amount of FLT converted into FLT-phosphate per hour per million cells (nmol h^−1 10^−6 cells).

[1] = molecular target: T2, recombinant mitochondrial TK-2 (Homo sapiens, UniProt O00142); test: Phosphorylation of [CH3-3H]dThd by recombinant TK-2; format: biochemical
T2 sequence (O00142 34-265): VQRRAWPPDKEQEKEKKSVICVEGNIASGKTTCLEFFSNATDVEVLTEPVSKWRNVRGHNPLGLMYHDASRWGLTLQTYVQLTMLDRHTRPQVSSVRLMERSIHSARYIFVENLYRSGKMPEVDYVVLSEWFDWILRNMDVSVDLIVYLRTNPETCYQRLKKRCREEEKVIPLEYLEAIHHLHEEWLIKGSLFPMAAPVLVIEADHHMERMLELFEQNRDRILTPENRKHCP
Protocol: (§3) […] A 50 μl reaction mixture, containing 50 mM Tris-HCl, pH 8.0, 2.5 mM MgCl2, 10 mM dithiothreitol, 2.5 mM ATP, 1.0 mg ml^−1 bovine serum albumin, 10 mM NaF, [CH3-^3H]dThd (0.1 μCi in 5 μl; 1 μM final concentration) and 5 μl of recombinant enzyme, was incubated at 37°C for 30 min in the presence or absence of different concentrations of dCTP or KIN52. During this time, the enzyme reaction proceeded linearly. Formation of tritiated dTMP was measured by spotting aliquots of the reaction mixture on Whatman DE-81 filter paper disks, as described earlier ([Balzarini et al, 2003]).

[2] = system: cellular TK activities (MDA MB231 cell lysates); test: Inhibition of cellular TK activity by TK-2 inhibitors added to cell lysates; format: biochemical, human; conditions: dCTP 10 μM added to cell lysates
Protocol: Cell pellets were suspended in 50 mM Tris/1 mM EDTA (pH 7.4) and sonificated on ice. Lysates were spun down and supernatant diluted 1 : 8 in 50 mM Tris/1 mM EDTA (pH 7.4).
as §1, §2

[3] = molecular target: T3, recombinant cytosolic TK-1 (Homo sapiens, UniProt P04183); test: Phosphorylation of [CH3-3H]dThd by recombinant TK-1; format: biochemical
T3 sequence (P04183 1-234): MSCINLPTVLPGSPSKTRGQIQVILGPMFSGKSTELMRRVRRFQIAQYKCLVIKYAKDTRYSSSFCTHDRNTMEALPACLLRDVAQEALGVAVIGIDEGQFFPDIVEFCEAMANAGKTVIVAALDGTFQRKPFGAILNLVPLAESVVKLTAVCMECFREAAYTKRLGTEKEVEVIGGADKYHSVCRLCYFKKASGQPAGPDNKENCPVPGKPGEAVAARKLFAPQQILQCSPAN
Protocol: A 50 μl reaction mixture, containing 50 mM Tris-HCl, pH 8.0, 2.5 mM MgCl2, 10 mM dithiothreitol, 2.5 mM ATP, 1.0 mg ml^−1 bovine serum albumin, 10 mM NaF, [CH3-^3H]dThd (0.1 μCi in 5 μl; 1 μM final concentration) and 5 μl of recombinant enzyme, was incubated at 37°C for 30 min in the presence or absence of different concentrations of dCTP or KIN52.

MDA MB231 cells = test: Separation of cellular FLT and FLT-phosphate by TLC; format: cell-based, human; conditions: one hour after adding FLT
Excerpt: To discriminate between FLT and FLT-phosphate, cells in another identical plate were harvested and after stopping the enzyme reaction, cells were sonificated and spun down. 3′-deoxy-3′-[^18F]fluorothymidine and FLT-phosphate, present in the supernatant were separated as described above (section TK enzyme activity).

[4] = substrate: Cc1cn([C@H]2C[C@H](O)[C@@H](CO)O2)c(=O)[nH]c1=O; test: Phosphorylation of [CH3-3H]dThd by recombinant TK-2; format: biochemical; conditions: other: TK-2, Lineweaver–Burk; pH 8.0; 37.0 °C
Protocol: as §3

inhibition of FLT phosphorylation by TK-2 (purified TK-2; dCTP 10 mM): 97%
IC50 ([1]; TK-2, 1 μM [CH3-3H]dThd as substrate): ~50 µM
IC50 ([3]; TK-1, 1 μM [CH3-3H]dThd as substrate): ~5 µM
Molecule: Nc1ccn([C@H]2C[C@H](O)[C@@H](COP(=O)(O)OP(=O)(O)OP(=O)(O)O)O2)c(=O)n1 [dCTP]
inhibition of cellular TK activities [2]: 55–90%

conversion of FLT into FLT-phosphate (purified TK-2; FLT added to purified TK-2): 8%
Ki/Km ([1]; TK-2): 3.2
Ki ([1]; TK-2, competitive vs dThd, read-out: Ki FLT): 4.2 µM
Ki ([3]; TK-1, competitive vs dThd, read-out: Ki FLT): 1.9 µM
Molecule: Cc1cn([C@H]2C[C@H]([18F])[C@@H](CO)O2)c(=O)[nH]c1=O [FLT, 3′-deoxy-3′-[^18F]fluorothymidine]
cellular radioactivity as unphosphorylated FLT (MDA MB231 cells): less than 20%
cellular radioactivity counts due to FLT phosphate (MDA MB231 cells): more than 80%

B1: recombinant mitochondrial TK-2 (Homo sapiens) (protein)
chain: VQRRAWPPDKEQEKEKKSVICVEGNIASGKTTCLEFFSNATDVEVLTEPVSKWRNVRGHNPLGLMYHDASRWGLTLQTYVQLTMLDRHTRPQVSSVRLMERSIHSARYIFVENLYRSGKMPEVDYVVLSEWFDWILRNMDVSVDLIVYLRTNPETCYQRLKKRCREEEKVIPLEYLEAIHHLHEEWLIKGSLFPMAAPVLVIEADHHMERMLELFEQNRDRILTPENRKHCP
Km [4]: 1.3 µM
